Here are results for ten compounds from ChEMBL document CHEMBL1201862, “PubChem BioAssay data set” (2004).

Structures can show the parent of a compound that is named as a salt.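 Grown in 96-well plates, cells were treated for 48 hours with each compound at five concentrations. Insufficient inhibition: endpoint recorded as highest concentration tested. GI50: concentration for 50% inhibition of growth.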 Calls of active or inactive are those of the source. Cut-off read from the data, not from the text of the source: active = GI50 up to about 1.1 µM and inactive = higher.

Some test systems named below: UO-31; HCC 2998; HOP-62; MOLT-4; NCI-H226; SF-295; COLO 205; U-251; SK-MEL-5; SNB-75; SNB-19; A498; OVCAR-8; SK-MEL-28; OVCAR-4; NCI-H23; HOP-92.
Common to all, as to assay: NCI anticancer screen, dose series, 48 h

Regarding `C[n+]1cc(C(O)c2ccc3c(c2)OCO3)c2ccccc2c1` (configuration not stated), the GI50 with UO-31 is 16.6 µM (inactive); in the test with HCC 2998, 37.8 µM (inactive); with HOP-62 it was 37.7 µM (inactive); in the test on MOLT-4 it was 17.9 µM (inactive); with NCI-H226, 20.6 µM (inactive); in the test with SF-295 it was 28.6 µM (inactive). For the same compound, the GI50 is 33.2 µM (inactive) with COLO 205; 27 µM (inactive) in the test on U-251; 17.9 µM (inactive) in the test with SK-MEL-5; 41.1 µM (inactive) in the test on SNB-75; 44.3 µM (inactive) in the test on SNB-19; 29.9 µM (inactive) in the test on A498. Further, the GI50 in the test with OVCAR-8 was 33.3 µM (inactive).

For the compound `CCOC(=O)CC(C)C1(C=O)CCCCC1=O` (configuration not stated), the GI50 in the test on SK-MEL-28, in the test on UO-31, with HCC 2998, in the test with HOP-62, in the test on MOLT-4 and with NCI-H226 was > 100 µM (inactive) each time. In addition, the GI50 in the test with SF-295 is > 100 µM (inactive); with COLO 205, 29.3 µM (inactive); in the test on U-251, > 100 µM (inactive); with SK-MEL-5 it was > 100 µM (inactive); with SNB-75 it was > 100 µM (inactive); with SNB-19, > 100 µM (inactive). The GI50 in the test on A498 is > 100 µM (inactive); in the test on OVCAR-8, > 100 µM (inactive); in the test with OVCAR-4, 79.8 µM (inactive).

For `Cc1nc2c(n1CCO)C(=O)c1ccccc1C2=O`, the GI50 in the test on SK-MEL-28 was 93.3 µM (inactive); with UO-31, > 100 µM (inactive); with HCC 2998, 41.4 µM (inactive); in the test on HOP-62, 28.6 µM (inactive); in the test on NCI-H23 it was 15 µM (inactive); in the test with MOLT-4, 28.9 µM (inactive). Besides, the GI50 in the test with NCI-H226 is > 100 µM (inactive); with SF-295, 48.4 µM (inactive); with COLO 205 it was 18.9 µM (inactive); in the test on U-251, 26.5 µM (inactive); with SK-MEL-5, 11.3 µM (inactive); in the test on SNB-75 it was 82.2 µM (inactive). The GI50 in the test with SNB-19 was 43 µM (inactive); in the test with OVCAR-8 it was 30.3 µM (inactive); in the test with OVCAR-4, 26.2 µM (inactive).

Turning to `CC(=O)O[C@H]1CCC2[C@@H]3CCC4Nc5[nH]ncc5C[C@]4(C)C3CC[C@@]21C` (some centres not stated), the GI50 in the test with UO-31 was > 100 µM (inactive); in the test on HCC 2998 it was 30.2 µM (inactive); with HOP-62 it was > 100 µM (inactive); with NCI-H23, 61.2 µM (inactive); in the test on MOLT-4 it was 22.9 µM (inactive); with NCI-H226, > 100 µM (inactive). Further, the GI50 was > 100 µM (inactive) in the test on SF-295; 37.2 µM (inactive) in the test on COLO 205; 80.2 µM (inactive) in the test on U-251; 24.5 µM (inactive) with SK-MEL-5; 54 µM (inactive) in the test with SNB-75; 26.4 µM (inactive) in the test with SNB-19. The GI50 in the test with A498 was > 100 µM (inactive); in the test on OVCAR-8, 34.9 µM (inactive); in the test with OVCAR-4, 81.1 µM (inactive).

With `CSc1nc(Cl)c(Br)c(Sc2nc(N)nc3nc[nH]c23)n1`, the GI50 in the test on SK-MEL-28 was 11 µM (inactive); in the test on UO-31, 5.01 µM (inactive); in the test with HCC 2998, 3.79 µM (inactive); in the test with HOP-62, 2 µM (inactive); with NCI-H23 it was 10.4 µM (inactive); in the test on MOLT-4, 4.2 µM (inactive). Further, the GI50 in the test on NCI-H226 is 10.5 µM (inactive); in the test with SF-295, 4.72 µM (inactive); in the test with COLO 205 it was 15.7 µM (inactive); in the test with U-251, 4.48 µM (inactive); with SK-MEL-5, 12.5 µM (inactive); in the test on SNB-75, 3.03 µM (inactive). For the same compound, the GI50 is 16.6 µM (inactive) in the test with SNB-19, 11 µM (inactive) with OVCAR-8, 11 µM (inactive) with OVCAR-4 and 7.28 µM (inactive) in the test with HOP-92.

With `C[Si](C)(C)c1ccc(-c2sc(-c3ccc([Si](C)(C)C)s3)c3c2C[Si]2(C3)Cc3c(-c4ccc([Si](C)(C)C)s4)sc(-c4ccc([Si](C)(C)C)s4)c3C2)s1`, the GI50 in the test on SK-MEL-28, in the test on UO-31, in the test with HCC 2998, in the test on HOP-62, in the test on NCI-H23 and in the test with MOLT-4 was > 100 µM (inactive) each time. Further, the GI50 in the test with NCI-H226 was > 100 µM (inactive); with SF-295, > 100 µM (inactive); in the test on COLO 205 it was > 100 µM (inactive); in the test on U-251 it was > 100 µM (inactive); in the test with SK-MEL-5, > 100 µM (inactive); in the test with SNB-75, 24.9 µM (inactive). Moreover, the GI50 with SNB-19, in the test on OVCAR-8, with OVCAR-4 and in the test on HOP-92 was > 100 µM (inactive) in each case.

On to `COc1ccc(C(C#N)NNC(=O)c2ccccc2O)cc1OC` (configuration not stated), for which the GI50 with SK-MEL-28 was 28.6 µM (inactive); in the test on UO-31 it was 0.379 µM (active); in the test with HOP-62 it was 13.2 µM (inactive); in the test with NCI-H23 it was 0.746 µM (active); with MOLT-4, 3.04 µM (inactive); in the test on NCI-H226 it was 1.96 µM (inactive). The GI50 in the test with SF-295 is 1.24 µM (inactive); in the test with COLO 205, 35.6 µM (inactive); with U-251, 0.45 µM (active); in the test on SK-MEL-5, 8.95 µM (inactive); in the test with SNB-75, 0.331 µM (active); with OVCAR-8, 1.46 µM (inactive). The GI50 with OVCAR-4 is 1.7 µM (inactive).

For `CCOC(=O)C1=C(C)CC2C(=O)OC(=O)C2C1(C)C` (configuration not stated), the GI50 in the test with SK-MEL-28, in the test with UO-31, in the test with HCC 2998, in the test with NCI-H23, in the test with MOLT-4 and in the test with NCI-H226 was > 100 µM (inactive) in each case. For the same compound, the GI50 in the test on SF-295, in the test on COLO 205, with U-251, with SK-MEL-5, with SNB-19 and with OVCAR-8 was > 100 µM (inactive) in each case. Moreover, in the test on HOP-92, the GI50 is > 100 µM (inactive).

On to `CC1CC2C(=O)NC(=O)C2c2[nH]c3ccccc3c21` (configuration not stated), for which the GI50 with UO-31 is 71.4 µM (inactive); in the test with HOP-62, 74 µM (inactive); with NCI-H23, > 100 µM (inactive); with MOLT-4 it was > 100 µM (inactive); in the test on NCI-H226, 67.1 µM (inactive); in the test with SF-295, > 100 µM (inactive). Besides, the GI50 was > 100 µM (inactive) with COLO 205; > 100 µM (inactive) in the test on U-251; 70 µM (inactive) with SK-MEL-5; 1.53 µM (inactive) in the test on SNB-75; > 100 µM (inactive) in the test with OVCAR-8; 92.7 µM (inactive) in the test on OVCAR-4. In the test with HOP-92, the GI50 is 34.4 µM (inactive).

On to `CC(NC(C)(C)C)C(=O)c1cccc(Cl)c1` (configuration not stated) [BUPROPION HYDROCHLORIDE], for which the GI50 with SK-MEL-28, with HCC 2998, in the test with HOP-62, in the test on NCI-H23, in the test with MOLT-4 and in the test with SF-295 was > 100 µM (inactive) throughout. Also, the GI50 in the test on COLO 205, with U-251, in the test with SK-MEL-5, with SNB-75, in the test with A498 and in the test with OVCAR-8 was > 100 µM (inactive) in each case. For the same compound, in the test with OVCAR-4, the GI50 is > 100 µM (inactive).
